Reference: ChEMBL document CHEMBL1201862, “PubChem BioAssay data set” (2004)
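48-hour exposure; five concentrations; linearly interpolated endpoints. GI50 is the concentration that inhibits growth by half.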 Calls of active or inactive are those of the source. Rule as the data show it: active = GI50 up to about 1.1 µM and inactive = higher.

Tests used:
Assay in all cases: growth of human tumour cells (NCI), 48 h
[1] = tested on: SK-MEL-2
[2] = tested on: OVCAR-8
[3] = tested on: OVCAR-3
[4] = tested on: A549
[5] = tested on: ACHN
[6] = tested on: MCF7
[7] = tested on: CCRF-CEM
[8] = tested on: OVCAR-4
[9] = tested on: SNB-19
[10] = tested on: NCI/ADR-RES
[11] = tested on: SF-295
[12] = tested on: HT-29
[13] = tested on: DU-145
[14] = tested on: TK-10
[15] = tested on: HL-60
[16] = tested on: K562
[17] = tested on: UO-31
[18] = tested on: NCI-H226
[19] = tested on: MDA-MB-435
[20] = tested on: HOP-92

SMILES | GI50 [1] | GI50 [2] | GI50 [3] | GI50 [4] | GI50 [5] | GI50 [6] | GI50 [7] | GI50 [8] | GI50 [9] | GI50 [10] | GI50 [11] | GI50 [12] | GI50 [13] | GI50 [14] | GI50 [15] | GI50 [16] | GI50 [17] | GI50 [18] | GI50 [19] | GI50 [20]
O=C1CCC[C@]2(CCC[C@@H](O)C2)N1 | > 100 µM (inactive) | > 100 µM (inactive) | > 100 µM (inactive) | > 100 µM (inactive) | > 100 µM (inactive) | > 100 µM (inactive) | > 100 µM (inactive) | > 100 µM (inactive) | > 100 µM (inactive) | > 100 µM (inactive) | > 100 µM (inactive) | > 100 µM (inactive) | > 100 µM (inactive) | > 100 µM (inactive) | > 100 µM (inactive) | > 100 µM (inactive) | – | – | – | –
CN(C)CCOc1ccc([N+](=O)[O-])c2cccnc12 | > 100 µM (inactive) | > 100 µM (inactive) | > 100 µM (inactive) | > 100 µM (inactive) | > 100 µM (inactive) | > 100 µM (inactive) | > 100 µM (inactive) | – | > 100 µM (inactive) | > 100 µM (inactive) | > 100 µM (inactive) | 39.4 µM (inactive) | > 100 µM (inactive) | > 100 µM (inactive) | > 100 µM (inactive) | 97.3 µM (inactive) | > 100 µM (inactive) | > 100 µM (inactive) | > 100 µM (inactive) | –
CNNC1=NS(=O)(=O)c2cc(C)c(Cl)cc2S1 | > 10 µM (inactive) | > 10 µM (inactive) | > 10 µM (inactive) | > 10 µM (inactive) | > 10 µM (inactive) | – | > 10 µM (inactive) | > 10 µM (inactive) | > 10 µM (inactive) | > 10 µM (inactive) | > 10 µM (inactive) | > 10 µM (inactive) | > 10 µM (inactive) | > 10 µM (inactive) | > 10 µM (inactive) | > 10 µM (inactive) | 0.0344 µM (active) | > 10 µM (inactive) | > 10 µM (inactive) | –
CN(C)CCSc1cc(-c2ccccc2)c2ccccc2n1 | 14.2 µM (inactive) | 19.1 µM (inactive) | – | 13.6 µM (inactive) | 13.5 µM (inactive) | 13.2 µM (inactive) | 10.5 µM (inactive) | – | 13.6 µM (inactive) | 14.9 µM (inactive) | 12.6 µM (inactive) | 5.78 µM (inactive) | 15.4 µM (inactive) | 7.93 µM (inactive) | 3.69 µM (inactive) | 2.09 µM (inactive) | 10.6 µM (inactive) | 16.6 µM (inactive) | 10.1 µM (inactive) | –
CC1=NNC(=O)C1C1CC(c2c[nH]c3ccccc23)=NN=C1Cl (stereo not given) | > 100 µM (inactive) | > 100 µM (inactive) | 62.1 µM (inactive) | 57.4 µM (inactive) | 86.1 µM (inactive) | – | 25.8 µM (inactive) | – | 40.9 µM (inactive) | > 100 µM (inactive) | 53.1 µM (inactive) | 40.9 µM (inactive) | > 100 µM (inactive) | > 100 µM (inactive) | 20 µM (inactive) | 28.4 µM (inactive) | 31.2 µM (inactive) | 74.1 µM (inactive) | 48.9 µM (inactive) | > 100 µM (inactive)
O=S(=O)(c1cc(Cl)ccc1Cl)N1CCN(c2cccc(Cl)c2)CC1 | – | > 100 µM (inactive) | > 100 µM (inactive) | > 100 µM (inactive) | > 100 µM (inactive) | > 100 µM (inactive) | > 100 µM (inactive) | > 100 µM (inactive) | > 100 µM (inactive) | – | > 100 µM (inactive) | 58.7 µM (inactive) | > 100 µM (inactive) | > 100 µM (inactive) | > 100 µM (inactive) | 67 µM (inactive) | > 100 µM (inactive) | > 100 µM (inactive) | – | > 100 µM (inactive)
CCCCc1ccc(N2C(=O)c3cc([N+](=O)[O-])cnc3S2(=O)=O)cc1 | 23.3 µM (inactive) | > 100 µM (inactive) | > 100 µM (inactive) | > 100 µM (inactive) | > 100 µM (inactive) | 59.8 µM (inactive) | > 10 µM (inactive) | > 100 µM (inactive) | 52.1 µM (inactive) | 25.2 µM (inactive) | 47.2 µM (inactive) | > 100 µM (inactive) | – | > 100 µM (inactive) | – | > 100 µM (inactive) | > 100 µM (inactive) | > 100 µM (inactive) | > 100 µM (inactive) | 0.424 µM (active)
[O-][S+](c1ccccc1)c1ccc(/N=N/O)nc1 (stereo not given) | – | > 100 µM (inactive) | > 100 µM (inactive) | > 100 µM (inactive) | > 100 µM (inactive) | > 100 µM (inactive) | > 100 µM (inactive) | > 100 µM (inactive) | > 100 µM (inactive) | > 100 µM (inactive) | > 100 µM (inactive) | > 100 µM (inactive) | > 100 µM (inactive) | > 100 µM (inactive) | > 100 µM (inactive) | > 100 µM (inactive) | > 100 µM (inactive) | 69.8 µM (inactive) | – | –
CCCNC(=O)c1cc(NC(=O)c2cc(NC(=O)/C=C/c3ccccc3)c(OC)c(OC)c2)c(OC)c(OC)c1 | 7.83 µM (inactive) | 4.51 µM (inactive) | 4.01 µM (inactive) | 5.64 µM (inactive) | 7.94 µM (inactive) | 7.98 µM (inactive) | > 100 µM (inactive) | 2.54 µM (inactive) | 5.87 µM (inactive) | 9.33 µM (inactive) | 3.16 µM (inactive) | 11.8 µM (inactive) | 24.8 µM (inactive) | 14.8 µM (inactive) | > 100 µM (inactive) | > 100 µM (inactive) | 5.6 µM (inactive) | 0.0216 µM (active) | 12 µM (inactive) | –
N#Cc1sc2c(c1OC(=O)c1cccs1)c(=O)n(-c1ccccc1)c(=S)n2-c1ccccc1 | 21.1 µM (inactive) | 25.9 µM (inactive) | 31.1 µM (inactive) | 31 µM (inactive) | – | 21.5 µM (inactive) | > 10 µM (inactive) | 20.7 µM (inactive) | 26.5 µM (inactive) | 21.8 µM (inactive) | 21 µM (inactive) | 29.5 µM (inactive) | 32.4 µM (inactive) | 31 µM (inactive) | 21.3 µM (inactive) | 22 µM (inactive) | 16.1 µM (inactive) | 19.5 µM (inactive) | 29.9 µM (inactive) | –
c1ccc([B-]2(c3ccccc3)NCCCO2)cc1 | 89.9 µM (inactive) | 70.5 µM (inactive) | 35.1 µM (inactive) | 58.6 µM (inactive) | 35.4 µM (inactive) | – | 34.5 µM (inactive) | 67.9 µM (inactive) | > 100 µM (inactive) | 64.1 µM (inactive) | 51.3 µM (inactive) | > 100 µM (inactive) | 72.3 µM (inactive) | 43.2 µM (inactive) | > 100 µM (inactive) | 97.7 µM (inactive) | 20 µM (inactive) | 31 µM (inactive) | 46.3 µM (inactive) | 20.3 µM (inactive)
C/C=C1\CCC2c3[nH]c4ccccc4c3CCN2C1 (stereo not given) | > 100 µM (inactive) | > 100 µM (inactive) | 35.8 µM (inactive) | > 100 µM (inactive) | > 100 µM (inactive) | – | > 100 µM (inactive) | 32.1 µM (inactive) | > 100 µM (inactive) | – | > 100 µM (inactive) | 40 µM (inactive) | – | > 100 µM (inactive) | 43.3 µM (inactive) | 43.6 µM (inactive) | 38.6 µM (inactive) | 31 µM (inactive) | – | 26.3 µM (inactive)
CCOC(=O)/C(=C/c1ccccc1)N(CC)CC | > 100 µM (inactive) | > 100 µM (inactive) | > 100 µM (inactive) | > 100 µM (inactive) | > 100 µM (inactive) | – | 62.2 µM (inactive) | > 100 µM (inactive) | > 100 µM (inactive) | – | > 100 µM (inactive) | > 100 µM (inactive) | – | > 100 µM (inactive) | > 100 µM (inactive) | > 100 µM (inactive) | > 100 µM (inactive) | > 100 µM (inactive) | – | > 100 µM (inactive)
O=C(O)C1CC2CC(=O)C1C2 (stereo not given) | > 100 µM (inactive) | > 100 µM (inactive) | > 100 µM (inactive) | > 100 µM (inactive) | > 100 µM (inactive) | – | > 100 µM (inactive) | > 100 µM (inactive) | > 100 µM (inactive) | – | > 100 µM (inactive) | > 100 µM (inactive) | – | > 100 µM (inactive) | > 100 µM (inactive) | > 100 µM (inactive) | > 100 µM (inactive) | > 100 µM (inactive) | – | > 100 µM (inactive)
C1=CC2SSSC2C1 (stereo not given) | > 100 µM (inactive) | > 100 µM (inactive) | > 100 µM (inactive) | > 100 µM (inactive) | > 100 µM (inactive) | – | > 100 µM (inactive) | > 100 µM (inactive) | > 100 µM (inactive) | – | > 100 µM (inactive) | > 100 µM (inactive) | – | > 100 µM (inactive) | > 100 µM (inactive) | > 100 µM (inactive) | > 100 µM (inactive) | > 100 µM (inactive) | – | > 100 µM (inactive)
Cc1cc(=O)oc2cc3c(cc12)Oc1ccccc1O3 | > 100 µM (inactive) | 42.7 µM (inactive) | > 100 µM (inactive) | > 100 µM (inactive) | > 100 µM (inactive) | – | > 10 µM (inactive) | > 100 µM (inactive) | > 100 µM (inactive) | – | 43.5 µM (inactive) | > 100 µM (inactive) | – | > 100 µM (inactive) | > 10 µM (inactive) | > 10 µM (inactive) | > 100 µM (inactive) | > 100 µM (inactive) | – | > 100 µM (inactive)
